Measurements: patent publication US10494402B2, “Peptides that stimulate subcutaneous adipogenesis” (The Regents of the University of California, priority 2012, dated 2019)

Tests used:
[1] = tested on: 2D human Pre-adipocytes; assay: Adipogenic potential ranking in 2D tissue culture, human pre-adipocytes; type: cell-based; conditions: scale of 0-5, 5 highest
Experimental: Examples of the adipogenic effects of RHAMM antagonists (peptide B (SEQ ID NO: 2), peptide P15-1 (SEQ ID NO. 1), and the antibody to peptide B) are summarized in Table 1. Peptide P15-1, peptide B, and a RHAMM antibody were assayed for their effects on pre-adipocyte stem cells in culture and when injected into the dermis of aged rats. Reagents were ranked on a scale of 0-5 with 5 representing the highest possible score and a completely filled in Harvey ball. “2D” refers to two-dimensional tissue culture.

[2] = tested on: Human pre-adipocytes; assay: Adipogenesis in 3D collagen gel culture; type: cell-based; conditions: 3D collagen gels in the presence of adipogenic cocktail
Experimental: The adipogenic activity of peptide B (SEQ ID NO:2) was also examined using a three-dimensional (3D) culture system that models human skin.
Human pre-adipocytes were cultured in 3D collagen gels in the presence of the adipogenic cocktail described above (Adipocyte Differentiation Medium (ZenBio catalog no. DM-2)) and exposed to peptide B (SEQ ID NO: 2). […] The 3D results predict the ability of the B peptide to promote adipogenesis in vivo.

[3] = tested on: mesenchymal stem cells or papillary fibroblasts; assay: Adipogenesis by RHAMM antagonists in tissue culture and in vivo (summary statements)
From the text: (§1) We hypothesized that the fragment and the antibody were blocking RHAMM function by competitive inhibition and by direct binding/blocking of RHAMM, respectively. Using truncation analyses, the size of the peptide was further reduced to 32 amino acids ([…] (SEQ ID NO: 92)) and it was shown that adipogenic activity is localized to a 15 amino acid peptide (KLKDENSQLKSEVSK (SEQ ID NO: 2); “peptide B” or “B-1” herein) shown in FIG. 2. This peptide was chemically synthesized to use as a competitive blocker, and antibodies were prepared against this sequence tagged with keyhold lymphocyte hemacyanin (KLH) to directly bind/block RHAMM function.
The RHAMM sequence that contains adipogenic activity also contains the hyaluronan binding region of this protein.
All of these reagents can replace insulin in their ability to promote adipogenesis in mesenchymal stem cells or papillary fibroblasts.

[4] = tested on: RHAMM; assay: Blocking of RHAMM function; conditions: competitive blocker / direct binding
From the text: as §1

[5] = tested on: Female Fisher retired breeder rats; assay: In vivo adipogenic activity in female retired breeder rat model; conditions: 100 μg subcutaneous in 1 ml collagen vehicle; 7 days
Experimental: The adipogenic activity of the KSEVSK 6-mer (SEQ ID NO: 3) was also evaluated in vivo in a female retired breeder rat model. Female Fisher retired breeder rats (>9 months old) were used in these studies. The rats were injected subcutaneously with a 100 μg dose of the KSEVSK 6-mer peptide in 1 ml of a collagen vehicle or with collagen vehicle alone. The collagen vehicle contained 1 mg/ml of rat tail Type I collagen. […] Rats were injected with KSEVSK 6-mer peptide and collagen vehicle at sites A and C and with collagen vehicle only at sites B and D. Animals were maintained on a regular diet for 7 days and then euthanized Skin was harvested by cutting around the injected area, ensuring that underlying adipose tissue was retained with the skin at the injection sites. The tissue was then photographed and fat accumulation was assessed.

| Substance | adipogenic potential, 2D human Pre-adipocytes [1] | adipogenesis (light refractory lipid droplets) [2] | adipogenesis in tissue culture and in vivo [3] | adipogenicity relative to the other reagents of Table 1 [3] | RHAMM function [4] | fat pad surface area vs collagen vehicle alone [5] |
| --- | --- | --- | --- | --- | --- | --- |
| KLKDENSQLKSEVSK [peptide B] | 5 | promoted adipogenesis | promote adipogenesis in tissue culture and in vivo | the most adipogenic of these reagents | effectively block RHAMM function |  |
| KSEVSK [KSEVSK 6-mer] |  |  |  |  |  | significantly larger |
